Assays:
Assay in all cases: relative viability (nuclei count vs DMSO), 5 days (fraction); higher = more cells survive
201T = tested on: 201T
How it was run: (§1)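 Lung cancer cell lines were seeded in 1536-well plates and dosed by pin tool the next day, with either a single drug or a fixed anchor-drug dose combined with five library-drug doses (not always all listed) spaced in √10 steps. Five days later, one step fixed the cells and stained their nuclei (final 0.05% Triton X-100, 1% formaldehyde, 1 ug/ml Hoechst), and nuclei were counted on 4× images. Relative viability is the nuclei count in treated wells divided by the count in vehicle wells, and each value is the median of duplicate plates.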

A-427 = tested on: A-427
How it was run: as §1

COR-L23 = tested on: COR-L23
How it was run: as §1

HARA = tested on: HARA
How it was run: as §1

HCC-78 = tested on: HCC-78
How it was run: as §1

LCLC-103H = tested on: LCLC-103H
How it was run: as §1

LCLC-97TM1 = tested on: LCLC-97TM1
How it was run: as §1

LK-2 = tested on: LK-2
How it was run: as §1

LOU-NH91 = tested on: LOU-NH91
How it was run: as §1

LXF-289 = tested on: LXF-289
How it was run: as §1

NCI-H1650 = tested on: NCI-H1650
How it was run: as §1

NCI-H1651 = tested on: NCI-H1651
How it was run: as §1

NCI-H1793 = tested on: NCI-H1793
How it was run: as §1

NCI-H2347 = tested on: NCI-H2347
How it was run: as §1

NCI-H23 = tested on: NCI-H23
How it was run: as §1

NCI-H2405 = tested on: NCI-H2405
How it was run: as §1

NCI-H520 = tested on: NCI-H520
How it was run: as §1

NCI-H522 = tested on: NCI-H522
How it was run: as §1

NCI-H647 = tested on: NCI-H647
How it was run: as §1

NCI-H838 = tested on: NCI-H838
How it was run: as §1

PC-3 [JPC-3] = tested on: PC-3 [JPC-3]
How it was run: as §1

RERF-LC-KJ = tested on: RERF-LC-KJ
How it was run: as §1

UMC-11 = tested on: UMC-11
How it was run: as §1

`Cc1csc(=NC2CCCCC2)n1/N=C/c1ccc(O)c(O)c1O` [MIM1] + CC(=O)c1c(C)c2cnc(Nc3ccc(N4CCNCC4)cn3)nc2n(C2CCCC2)c1=O [Palbociclib] (partner 0.5 µM) gave a relative viability (201T; first compound 0.2 µM) of 0.358, a relative viability (201T; first compound 0.6325 µM) of 0.344 and a relative viability (201T; first compound 2 µM) of 0.36. It also gave a relative viability (201T; first compound 6.325 µM) of 0.327, a relative viability (201T; first compound 20 µM) of 0.339 and a relative viability (A-427; first compound 0.2 µM) of 0.523. The relative viability (A-427; first compound 0.6325 µM) was 0.471, the relative viability (A-427; first compound 2 µM) was 0.545 and the relative viability (A-427; first compound 6.325 µM) was 0.473. The relative viability (A-427; first compound 20 µM) was 0.337, the relative viability (COR-L23; first compound 0.2 µM) was 0.301 and the relative viability (COR-L23; first compound 0.6325 µM) was 0.328. The relative viability (COR-L23; first compound 2 µM) was 0.258, the relative viability (COR-L23; first compound 6.325 µM) was 0.18 and the relative viability (COR-L23; first compound 20 µM) was 0.138. It also gave a relative viability (HARA; first compound 0.2 µM) of 0.253, a relative viability (HARA; first compound 0.6325 µM) of 0.302 and a relative viability (HARA; first compound 2 µM) of 0.281. The relative viability (HARA; first compound 6.325 µM) was 0.251, the relative viability (HARA; first compound 20 µM) was 0.169 and the relative viability (HCC-78; first compound 0.2 µM) was 0.463. The relative viability (HCC-78; first compound 2 µM) was 0.494, the relative viability (HCC-78; first compound 6.325 µM) was 0.377 and the relative viability (HCC-78; first compound 20 µM) was 0.402. It also gave a relative viability (LCLC-103H; first compound 0.2 µM) of 0.465, a relative viability (LCLC-103H; first compound 0.6325 µM) of 0.528 and a relative viability (LCLC-103H; first compound 2 µM) of 0.477. The relative viability (LCLC-103H; first compound 6.325 µM) was 0.482, the relative viability (LCLC-103H; first compound 20 µM) was 0.389 and the relative viability (LCLC-97TM1; first compound 0.2 µM) was 0.22. It also gave a relative viability (LCLC-97TM1; first compound 0.6325 µM) of 0.22, a relative viability (LCLC-97TM1; first compound 2 µM) of 0.217 and a relative viability (LCLC-97TM1; first compound 6.325 µM) of 0.169. It also gave a relative viability (LCLC-97TM1; first compound 20 µM) of 0.0835, a relative viability (LK-2; first compound 0.2 µM) of 0.774 and a relative viability (LK-2; first compound 0.6325 µM) of 0.495. It also gave a relative viability (LK-2; first compound 2 µM) of 0.468, a relative viability (LK-2; first compound 6.325 µM) of 0.725 and a relative viability (LK-2; first compound 20 µM) of 0.223. For the same compound, the relative viability (LOU-NH91; first compound 0.2 µM) was 0.524, the relative viability (LOU-NH91; first compound 0.6325 µM) was 0.569 and the relative viability (LOU-NH91; first compound 2 µM) was 0.516. It also gave a relative viability (LOU-NH91; first compound 6.325 µM) of 0.499, a relative viability (LOU-NH91; first compound 20 µM) of 0.36 and a relative viability (LXF-289; first compound 0.2 µM) of 0.603. The relative viability (LXF-289; first compound 0.6325 µM) was 0.594, the relative viability (LXF-289; first compound 2 µM) was 0.583 and the relative viability (LXF-289; first compound 6.325 µM) was 0.535. It also gave a relative viability (LXF-289; first compound 20 µM) of 0.237, a relative viability (NCI-H1650; first compound 0.2 µM) of 0.446 and a relative viability (NCI-H1650; first compound 0.6325 µM) of 0.316. It also gave a relative viability (NCI-H1650; first compound 2 µM) of 0.256, a relative viability (NCI-H1650; first compound 6.325 µM) of 0.137 and a relative viability (NCI-H1650; first compound 20 µM) of 0.136. It also gave a relative viability (NCI-H1651; first compound 0.2 µM) of 0.542, a relative viability (NCI-H1651; first compound 0.6325 µM) of 0.531 and a relative viability (NCI-H1651; first compound 2 µM) of 0.521. The relative viability (NCI-H1651; first compound 6.325 µM) was 0.416, the relative viability (NCI-H1651; first compound 20 µM) was 0.541 and the relative viability (NCI-H1793; first compound 0.2 µM) was 0.317. For the same compound, the relative viability (NCI-H1793; first compound 2 µM) was 0.353, the relative viability (NCI-H1793; first compound 6.325 µM) was 0.29 and the relative viability (NCI-H1793; first compound 20 µM) was 0.293. The relative viability (NCI-H2347; first compound 0.2 µM) was 0.408, the relative viability (NCI-H2347; first compound 0.6325 µM) was 0.404 and the relative viability (NCI-H2347; first compound 2 µM) was 0.446. It also gave a relative viability (NCI-H2347; first compound 6.325 µM) of 0.42, a relative viability (NCI-H2347; first compound 20 µM) of 0.356 and a relative viability (NCI-H23; first compound 0.2 µM) of 0.518. The relative viability (NCI-H23; first compound 0.6325 µM) was 0.51, the relative viability (NCI-H23; first compound 2 µM) was 0.413 and the relative viability (NCI-H23; first compound 6.325 µM) was 0.19. It also gave a relative viability (NCI-H23; first compound 20 µM) of 0.194, a relative viability (NCI-H2405; first compound 0.2 µM) of 0.512 and a relative viability (NCI-H2405; first compound 0.6325 µM) of 0.549. The relative viability (NCI-H2405; first compound 2 µM) was 0.605, the relative viability (NCI-H2405; first compound 6.325 µM) was 0.383 and the relative viability (NCI-H2405; first compound 20 µM) was 0.351. It also gave a relative viability (NCI-H520; first compound 0.2 µM) of 0.195, a relative viability (NCI-H520; first compound 0.6325 µM) of 0.239 and a relative viability (NCI-H520; first compound 2 µM) of 0.201. It also gave a relative viability (NCI-H520; first compound 6.325 µM) of 0.22, a relative viability (NCI-H520; first compound 20 µM) of 0.183 and a relative viability (NCI-H522; first compound 0.2 µM) of 0.819. It also gave a relative viability (NCI-H522; first compound 0.6325 µM) of 0.921, a relative viability (NCI-H522; first compound 2 µM) of 0.932 and a relative viability (NCI-H522; first compound 6.325 µM) of 1.13. For the same compound, the relative viability (NCI-H522; first compound 20 µM) was 0.61, the relative viability (NCI-H647; first compound 0.2 µM) was 0.395 and the relative viability (NCI-H647; first compound 0.6325 µM) was 0.404. For the same compound, the relative viability (NCI-H647; first compound 2 µM) was 0.381, the relative viability (NCI-H647; first compound 6.325 µM) was 0.338 and the relative viability (NCI-H647; first compound 20 µM) was 0.0937. It also gave a relative viability (NCI-H838; first compound 0.2 µM) of 0.202, a relative viability (NCI-H838; first compound 0.6325 µM) of 0.26 and a relative viability (NCI-H838; first compound 2 µM) of 0.216. The relative viability (NCI-H838; first compound 6.325 µM) was 0.169, the relative viability (NCI-H838; first compound 20 µM) was 0.168 and the relative viability (PC-3 [JPC-3]; first compound 0.2 µM) was 0.544. For the same compound, the relative viability (PC-3 [JPC-3]; first compound 0.6325 µM) was 0.538, the relative viability (PC-3 [JPC-3]; first compound 2 µM) was 0.493 and the relative viability (PC-3 [JPC-3]; first compound 6.325 µM) was 0.446. The relative viability (PC-3 [JPC-3]; first compound 20 µM) was 0.343, the relative viability (RERF-LC-KJ; first compound 0.2 µM) was 0.952 and the relative viability (RERF-LC-KJ; first compound 0.6325 µM) was 0.995. It also gave a relative viability (RERF-LC-KJ; first compound 2 µM) of 0.686, a relative viability (RERF-LC-KJ; first compound 6.325 µM) of 0.613 and a relative viability (RERF-LC-KJ; first compound 20 µM) of 0.227. For the same compound, the relative viability (UMC-11; first compound 0.2 µM) was 0.368, the relative viability (UMC-11; first compound 0.6325 µM) was 0.318 and the relative viability (UMC-11; first compound 2 µM) was 0.33. The relative viability (UMC-11; first compound 6.325 µM) was 0.362 and the relative viability (UMC-11; first compound 20 µM) was 0.338.
